According to the supplement of paper PMC10307832:

Key:
Test in all cases: relative viability (nuclei count vs DMSO), 5 days (fraction); higher = more cells survive
Linsitinib + Bortezomib = compound: C[C@]1(O)C[C@@H](c2nc(-c3ccc4ccc(-c5ccccc5)nc4c3)c3c(N)nccn32)C1 [Linsitinib] + CC(C)C[C@H](NC(=O)[C@H](Cc1ccccc1)NC(=O)c1cnccn1)B(O)O [Bortezomib] (partner 0.002 µM)
How it was run: (§1)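 Relative viability divides the nuclei count in treated wells by that in vehicle wells. Lung cancer cell lines were seeded in 1536-well plates, dosed by pin tool the next day, and fixed and stained after 5 days in one step with final 0.05% Triton X-100, 1% formaldehyde and 1 ug/ml Hoechst. Dosing was a single drug or a fixed anchor-drug dose plus five library-drug doses (not always all listed) in √10 steps, and values are medians of duplicate plates imaged at 4×.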

Ispinesib + Pemetrexed = compound: Cc1ccc(C(=O)N(CCCN)[C@@H](c2nc3cc(Cl)ccc3c(=O)n2Cc2ccccc2)C(C)C)cc1 [Ispinesib] + Nc1nc2[nH]cc(CCc3ccc(C(=O)N[C@@H](CCC(=O)O)C(=O)O)cc3)c2c(=O)[nH]1 [Pemetrexed] (partner 0.2 µM)
How it was run: as §1

Linsitinib + Tozasertib = compound: C[C@]1(O)C[C@@H](c2nc(-c3ccc4ccc(-c5ccccc5)nc4c3)c3c(N)nccn32)C1 [Linsitinib] + Cc1cc(Nc2cc(N3CCN(C)CC3)nc(Sc3ccc(NC(=O)C4CC4)cc3)n2)n[nH]1 [Tozasertib] (partner 0.1 µM)
How it was run: as §1

Linsitinib + Pictilisib = compound: C[C@]1(O)C[C@@H](c2nc(-c3ccc4ccc(-c5ccccc5)nc4c3)c3c(N)nccn32)C1 [Linsitinib] + CS(=O)(=O)N1CCN(Cc2cc3nc(-c4cccc5[nH]ncc45)nc(N4CCOCC4)c3s2)CC1 [Pictilisib] (partner 1 µM)
How it was run: as §1

Row | Cell Line | relative viability (Linsitinib + Bortezomib; first compound 0.01 µM) | relative viability (Linsitinib + Bortezomib; first compound 0.03162 µM) | relative viability (Linsitinib + Bortezomib; first compound 0.1 µM) | relative viability (Linsitinib + Bortezomib; first compound 0.3162 µM) | relative viability (Linsitinib + Bortezomib; first compound 1 µM) | relative viability (Ispinesib + Pemetrexed; first compound 0.001 µM) | relative viability (Ispinesib + Pemetrexed; first compound 0.003162 µM) | relative viability (Ispinesib + Pemetrexed; first compound 0.01 µM) | relative viability (Ispinesib + Pemetrexed; first compound 0.03162 µM) | relative viability (Ispinesib + Pemetrexed; first compound 0.1 µM) | relative viability (Linsitinib + Tozasertib; first compound 0.01 µM) | relative viability (Linsitinib + Tozasertib; first compound 0.03162 µM) | relative viability (Linsitinib + Tozasertib; first compound 0.1 µM) | relative viability (Linsitinib + Tozasertib; first compound 0.3162 µM) | relative viability (Linsitinib + Tozasertib; first compound 1 µM) | relative viability (Linsitinib + Pictilisib; first compound 0.01 µM) | relative viability (Linsitinib + Pictilisib; first compound 0.03162 µM) | relative viability (Linsitinib + Pictilisib; first compound 0.1 µM) | relative viability (Linsitinib + Pictilisib; first compound 0.3162 µM) | relative viability (Linsitinib + Pictilisib; first compound 1 µM)
1 | LOU-NH91 | 0.436 | 0.504 | 0.581 | 0.429 | 0.478 | 0.387 | 0.428 | 0.384 | 0.374 | 0.323 | 0.705 | 0.642 | 0.708 | 0.531 | 0.594 | 0.49 | 0.515 | 0.503 | 0.523 | 0.457
2 | NCI-H1666 | 0.675 | 0.798 | 0.774 | 0.348 | 0.308 | 0.89 | 0.786 | 0.883 | 0.91 | 0.817 | 0.595 | 0.628 | 0.587 | 0.545 | 0.434 | 0.376 | 0.286 | 0.296 | 0.162 | 0.307
3 | NCI-H2023 | 0.876 | 0.724 | 1 | 0.239 | 0.602 | 0.241 | 0.241 | 0.19 | 0.144 | 0.115 | 0.256 | 0.228 | 0.36 | 0.196 | 0.177 | 0.233 | 0.18 | 0.172 | 0.0774 | 0.147
4 | COR-L 105 | 0.821 | 0.619 | 0.785 | 0.389 | 0.501 | 1.09 | 1.11 | 1.24 | 0.794 | 0.5 | 0.421 | 0.324 | 0.356 | 0.298 | 0.309 | 0.454 | 0.434 | 0.387 | 0.301 | 0.25
5 | NCI-H838 | 0.809 | 0.898 | 0.755 | 0.153 | 0.385 | 0.255 | 0.248 | 0.248 | 0.252 | 0.148 | 0.277 | 0.209 | 0.295 |  | 0.221 | 0.42 | 0.446 | 0.374 | 0.217 | 0.306
6 | SW 1573 | 1.18 | 1.19 | 1.1 | 0.797 | 0.811 | 0.799 | 0.791 | 0.78 | 0.279 | 0.152 | 0.213 | 0.171 | 0.189 | 0.186 | 0.136 | 0.453 | 0.571 | 0.471 | 0.433 | 0.425
